Data as given in ChEMBL document CHEMBL4052759, “Discovery of DS79182026: A potent orally active hepcidin production inhibitor” (Bioorg Med Chem Lett, 2017).

How the values were obtained:
[1] = biological target: Mitogen-activated protein kinase kinase kinase kinase 4 (Homo sapiens) (UniProt O95819); test: Inhibition of HGK (unknown origin) at 0.078 uM relative to control
[2] = biological target: Cyclin-dependent kinase 2 (Homo sapiens) (UniProt P24941); test: Inhibition of CDK2 (unknown origin) at 0.078 uM relative to control
[3] = Oral bioavailability in C57BL/6J mouse at 30 mg/kg by LC-MS/MS analysis; type: ADME, organism-based; settings: in vivo
[4] = biological target: T1, cGMP-dependent protein kinase 1 (Homo sapiens) (UniProt Q13976); test: Inhibition of PKG-alpha (unknown origin) at 0.49 uM relative to control
T1 sequence (whole entry): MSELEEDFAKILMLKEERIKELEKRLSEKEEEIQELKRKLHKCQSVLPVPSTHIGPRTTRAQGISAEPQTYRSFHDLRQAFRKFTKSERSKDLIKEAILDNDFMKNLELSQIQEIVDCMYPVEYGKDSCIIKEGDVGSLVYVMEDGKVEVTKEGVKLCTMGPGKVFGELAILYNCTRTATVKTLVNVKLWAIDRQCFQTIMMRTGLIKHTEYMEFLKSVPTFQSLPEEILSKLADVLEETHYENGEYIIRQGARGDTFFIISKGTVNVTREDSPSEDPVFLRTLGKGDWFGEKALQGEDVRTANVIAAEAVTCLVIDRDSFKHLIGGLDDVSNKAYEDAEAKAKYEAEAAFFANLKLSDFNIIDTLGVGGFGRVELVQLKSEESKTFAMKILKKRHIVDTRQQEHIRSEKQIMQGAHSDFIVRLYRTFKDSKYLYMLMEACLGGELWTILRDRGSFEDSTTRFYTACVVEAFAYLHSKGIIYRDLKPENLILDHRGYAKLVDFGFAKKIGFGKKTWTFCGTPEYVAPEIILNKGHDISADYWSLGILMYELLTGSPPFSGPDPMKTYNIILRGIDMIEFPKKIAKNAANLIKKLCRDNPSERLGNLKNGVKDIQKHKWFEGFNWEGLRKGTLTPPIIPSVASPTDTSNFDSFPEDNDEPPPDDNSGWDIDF

[5] = biological target: PAS domain-containing serine/threonine-protein kinase (Homo sapiens) (UniProt Q96RG2); test: Inhibition of PASK (unknown origin) at 0.49 uM relative to control
[6] = biological target: MAP kinase-interacting serine/threonine-protein kinase 2 (Homo sapiens) (UniProt Q9HBH9); test: Inhibition of MNK2 (unknown origin) at 0.49 uM relative to control
[7] = biological target: T2, Serine/threonine-protein kinase D2 (Homo sapiens) (UniProt Q9BZL6); test: Inhibition of PKD2 (unknown origin) at 0.49 uM relative to control
T2 sequence (whole entry): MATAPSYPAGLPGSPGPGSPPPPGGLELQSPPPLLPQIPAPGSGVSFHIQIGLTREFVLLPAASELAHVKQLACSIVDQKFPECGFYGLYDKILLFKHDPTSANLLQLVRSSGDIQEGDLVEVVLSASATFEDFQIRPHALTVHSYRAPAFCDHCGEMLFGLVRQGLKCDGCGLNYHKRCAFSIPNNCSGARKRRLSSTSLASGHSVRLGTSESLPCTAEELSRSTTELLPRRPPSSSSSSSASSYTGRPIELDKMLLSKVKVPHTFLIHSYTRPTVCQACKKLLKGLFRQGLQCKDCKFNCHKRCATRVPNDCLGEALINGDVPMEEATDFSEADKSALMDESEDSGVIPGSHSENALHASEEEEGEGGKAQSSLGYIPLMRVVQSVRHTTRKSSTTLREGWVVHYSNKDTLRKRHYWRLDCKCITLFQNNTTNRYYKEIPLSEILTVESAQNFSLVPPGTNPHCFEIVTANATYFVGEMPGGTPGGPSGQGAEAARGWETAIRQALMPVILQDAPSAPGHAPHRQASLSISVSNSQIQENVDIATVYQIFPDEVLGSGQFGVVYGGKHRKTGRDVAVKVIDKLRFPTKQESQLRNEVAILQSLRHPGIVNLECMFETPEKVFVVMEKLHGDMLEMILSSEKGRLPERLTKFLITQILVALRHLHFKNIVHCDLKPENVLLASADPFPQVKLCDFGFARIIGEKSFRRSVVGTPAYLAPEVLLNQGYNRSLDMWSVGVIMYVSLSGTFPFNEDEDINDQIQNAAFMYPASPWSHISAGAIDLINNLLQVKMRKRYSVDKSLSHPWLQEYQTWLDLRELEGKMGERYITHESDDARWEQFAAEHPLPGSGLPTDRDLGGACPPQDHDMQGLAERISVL

[8] = biological target: Maternal embryonic leucine zipper kinase (Homo sapiens) (UniProt Q14680); test: Inhibition of MELK (unknown origin) at 0.49 uM relative to control
[9] = biological target: RAC-gamma serine/threonine-protein kinase (Homo sapiens) (UniProt Q9Y243); test: Inhibition of AKT3 (unknown origin) at 0.49 uM relative to control
[10] = biological target: Rho-associated protein kinase 1 (Homo sapiens) (UniProt Q13464); test: Inhibition of ROCK1 (unknown origin) at 0.49 uM relative to control
[11] = biological target: Protein kinase C gamma type (Homo sapiens) (UniProt P05129); test: Inhibition of PKC-gamma (unknown origin) at 0.45 uM relative to control
[12] = biological target: RAC-gamma serine/threonine-protein kinase (Homo sapiens) (UniProt Q9Y243); test: Inhibition of AKT3 (unknown origin) at 0.45 uM relative to control
[13] = biological target: Discoidin domain-containing receptor 2 (Homo sapiens) (UniProt Q16832); test: Inhibition of DDR2 (unknown origin) at 0.45 uM relative to control
[14] = biological target: Ephrin type-A receptor 3 (Homo sapiens) (UniProt P29320); test: Inhibition of EPHA3 (unknown origin) at 0.45 uM relative to control
[15] = biological target: T1, cGMP-dependent protein kinase 1 (Homo sapiens); test: Inhibition of PKG1-beta (unknown origin) at 0.45 uM relative to control
[16] = biological target: STE20-like serine/threonine-protein kinase (Homo sapiens) (UniProt Q9H2G2); test: Inhibition of SLK (unknown origin) at 0.45 uM relative to control
[17] = biological target: Macrophage-stimulating protein receptor (Homo sapiens) (UniProt Q04912); test: Inhibition of MST1R (unknown origin) at 0.45 uM relative to control
[18] = biological target: Testis-specific serine/threonine-protein kinase 2 (Homo sapiens) (UniProt Q96PF2); test: Inhibition of TSSK2 (unknown origin) at 0.45 uM relative to control
[19] = system: Fibroblast growth factor receptor 2 (Homo sapiens), P21802 [N549H]; test: Inhibition of FGFR2 N549H mutant (unknown origin) at 0.45 uM
[20] = biological target: Fibroblast growth factor receptor 1 (Homo sapiens) (UniProt P11362); test: Inhibition of FGFR1 (unknown origin) at 0.45 uM relative to control
[21] = biological target: Aurora kinase B (Homo sapiens) (UniProt Q96GD4); test: Inhibition of AurB (unknown origin) at 0.45 uM relative to control
[22] = biological target: RAC-alpha serine/threonine-protein kinase (Homo sapiens) (UniProt P31749); test: Inhibition of AKT1 (unknown origin) at 0.45 uM relative to control

Chain of RAC-gamma serine/threonine-protein kinase (Homo sapiens) (Q9Y243 whole entry, the tested form may be a part): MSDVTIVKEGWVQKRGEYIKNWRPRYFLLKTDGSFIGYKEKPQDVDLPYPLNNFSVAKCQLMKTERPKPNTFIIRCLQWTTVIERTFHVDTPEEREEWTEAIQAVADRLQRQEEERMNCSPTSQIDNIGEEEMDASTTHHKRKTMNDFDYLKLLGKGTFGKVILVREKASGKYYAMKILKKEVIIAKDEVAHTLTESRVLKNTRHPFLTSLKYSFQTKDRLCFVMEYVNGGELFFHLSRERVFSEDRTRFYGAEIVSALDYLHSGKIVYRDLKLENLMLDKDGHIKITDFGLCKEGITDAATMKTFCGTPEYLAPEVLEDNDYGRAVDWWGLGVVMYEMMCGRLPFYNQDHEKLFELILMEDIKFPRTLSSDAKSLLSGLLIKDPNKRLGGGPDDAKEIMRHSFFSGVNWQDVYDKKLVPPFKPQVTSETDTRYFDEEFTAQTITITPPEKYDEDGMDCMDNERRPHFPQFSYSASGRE
Chain of STE20-like serine/threonine-protein kinase (Homo sapiens) (Q9H2G2 whole entry, looked up): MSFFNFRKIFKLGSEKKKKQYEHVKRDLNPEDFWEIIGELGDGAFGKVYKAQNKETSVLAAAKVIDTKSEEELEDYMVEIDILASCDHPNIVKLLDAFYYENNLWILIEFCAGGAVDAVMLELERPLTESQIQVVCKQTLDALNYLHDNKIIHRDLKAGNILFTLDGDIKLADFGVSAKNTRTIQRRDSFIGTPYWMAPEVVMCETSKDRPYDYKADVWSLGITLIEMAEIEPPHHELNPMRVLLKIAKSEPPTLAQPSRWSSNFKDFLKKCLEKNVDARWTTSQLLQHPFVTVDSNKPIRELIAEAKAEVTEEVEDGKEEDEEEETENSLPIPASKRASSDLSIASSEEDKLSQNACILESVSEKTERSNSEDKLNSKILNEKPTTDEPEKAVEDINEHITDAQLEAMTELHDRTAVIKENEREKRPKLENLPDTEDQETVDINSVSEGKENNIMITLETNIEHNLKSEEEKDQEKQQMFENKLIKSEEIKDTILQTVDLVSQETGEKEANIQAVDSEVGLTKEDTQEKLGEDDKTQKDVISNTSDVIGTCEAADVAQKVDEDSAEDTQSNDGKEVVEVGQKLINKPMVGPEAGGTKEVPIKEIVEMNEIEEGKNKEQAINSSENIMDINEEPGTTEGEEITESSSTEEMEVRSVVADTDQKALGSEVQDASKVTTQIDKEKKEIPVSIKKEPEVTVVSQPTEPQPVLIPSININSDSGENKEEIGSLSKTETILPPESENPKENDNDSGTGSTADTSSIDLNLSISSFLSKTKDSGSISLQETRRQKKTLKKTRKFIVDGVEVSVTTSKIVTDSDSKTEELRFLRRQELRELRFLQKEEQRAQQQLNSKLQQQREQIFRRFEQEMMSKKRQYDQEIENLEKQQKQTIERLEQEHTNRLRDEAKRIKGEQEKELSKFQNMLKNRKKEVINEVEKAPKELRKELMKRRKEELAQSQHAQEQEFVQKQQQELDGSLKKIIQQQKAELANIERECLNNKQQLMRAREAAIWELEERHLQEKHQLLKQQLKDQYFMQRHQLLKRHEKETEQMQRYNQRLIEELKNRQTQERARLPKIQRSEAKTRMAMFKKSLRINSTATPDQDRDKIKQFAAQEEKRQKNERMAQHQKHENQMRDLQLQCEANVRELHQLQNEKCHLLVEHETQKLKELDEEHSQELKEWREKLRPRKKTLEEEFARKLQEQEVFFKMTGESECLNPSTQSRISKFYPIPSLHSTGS
Chain of Ephrin type-A receptor 3 (Homo sapiens) (P29320 whole entry): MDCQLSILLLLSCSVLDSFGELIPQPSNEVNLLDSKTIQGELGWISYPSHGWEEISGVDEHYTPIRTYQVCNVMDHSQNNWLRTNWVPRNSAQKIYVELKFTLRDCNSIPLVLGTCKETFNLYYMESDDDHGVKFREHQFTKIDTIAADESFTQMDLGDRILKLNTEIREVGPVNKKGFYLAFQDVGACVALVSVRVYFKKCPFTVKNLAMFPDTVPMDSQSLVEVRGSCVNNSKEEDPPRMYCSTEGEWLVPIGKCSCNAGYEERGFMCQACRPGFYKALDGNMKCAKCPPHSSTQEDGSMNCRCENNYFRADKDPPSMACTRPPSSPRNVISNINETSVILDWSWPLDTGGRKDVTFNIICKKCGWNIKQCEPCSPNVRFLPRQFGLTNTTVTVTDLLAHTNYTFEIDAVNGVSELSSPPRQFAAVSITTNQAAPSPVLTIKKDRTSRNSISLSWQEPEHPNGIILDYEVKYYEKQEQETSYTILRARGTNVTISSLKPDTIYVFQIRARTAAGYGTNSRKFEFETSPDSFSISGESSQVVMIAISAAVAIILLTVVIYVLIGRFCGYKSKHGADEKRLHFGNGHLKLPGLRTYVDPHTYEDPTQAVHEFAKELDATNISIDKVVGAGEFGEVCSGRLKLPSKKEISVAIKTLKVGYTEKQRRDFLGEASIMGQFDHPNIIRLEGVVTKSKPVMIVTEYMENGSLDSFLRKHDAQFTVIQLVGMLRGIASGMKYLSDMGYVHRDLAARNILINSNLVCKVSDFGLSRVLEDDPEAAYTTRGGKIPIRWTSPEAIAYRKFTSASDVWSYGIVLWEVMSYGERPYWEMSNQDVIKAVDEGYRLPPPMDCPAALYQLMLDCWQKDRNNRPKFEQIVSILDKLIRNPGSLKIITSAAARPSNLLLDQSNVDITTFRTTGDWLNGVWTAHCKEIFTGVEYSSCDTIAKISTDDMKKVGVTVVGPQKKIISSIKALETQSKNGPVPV
Chain of Aurora kinase B (Homo sapiens) (Q96GD4 whole entry): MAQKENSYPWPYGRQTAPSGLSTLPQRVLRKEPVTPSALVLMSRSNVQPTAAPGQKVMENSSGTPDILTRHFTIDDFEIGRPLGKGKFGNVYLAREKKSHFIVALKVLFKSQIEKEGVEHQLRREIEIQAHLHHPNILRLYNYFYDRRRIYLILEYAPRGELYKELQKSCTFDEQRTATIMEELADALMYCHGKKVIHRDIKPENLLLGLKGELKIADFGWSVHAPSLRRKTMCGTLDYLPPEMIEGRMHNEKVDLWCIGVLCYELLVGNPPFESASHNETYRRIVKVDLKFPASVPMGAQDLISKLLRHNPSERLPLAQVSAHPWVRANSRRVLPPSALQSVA
Chain of Discoidin domain-containing receptor 2 (Homo sapiens) (Q16832 whole entry, the tested form may be a part): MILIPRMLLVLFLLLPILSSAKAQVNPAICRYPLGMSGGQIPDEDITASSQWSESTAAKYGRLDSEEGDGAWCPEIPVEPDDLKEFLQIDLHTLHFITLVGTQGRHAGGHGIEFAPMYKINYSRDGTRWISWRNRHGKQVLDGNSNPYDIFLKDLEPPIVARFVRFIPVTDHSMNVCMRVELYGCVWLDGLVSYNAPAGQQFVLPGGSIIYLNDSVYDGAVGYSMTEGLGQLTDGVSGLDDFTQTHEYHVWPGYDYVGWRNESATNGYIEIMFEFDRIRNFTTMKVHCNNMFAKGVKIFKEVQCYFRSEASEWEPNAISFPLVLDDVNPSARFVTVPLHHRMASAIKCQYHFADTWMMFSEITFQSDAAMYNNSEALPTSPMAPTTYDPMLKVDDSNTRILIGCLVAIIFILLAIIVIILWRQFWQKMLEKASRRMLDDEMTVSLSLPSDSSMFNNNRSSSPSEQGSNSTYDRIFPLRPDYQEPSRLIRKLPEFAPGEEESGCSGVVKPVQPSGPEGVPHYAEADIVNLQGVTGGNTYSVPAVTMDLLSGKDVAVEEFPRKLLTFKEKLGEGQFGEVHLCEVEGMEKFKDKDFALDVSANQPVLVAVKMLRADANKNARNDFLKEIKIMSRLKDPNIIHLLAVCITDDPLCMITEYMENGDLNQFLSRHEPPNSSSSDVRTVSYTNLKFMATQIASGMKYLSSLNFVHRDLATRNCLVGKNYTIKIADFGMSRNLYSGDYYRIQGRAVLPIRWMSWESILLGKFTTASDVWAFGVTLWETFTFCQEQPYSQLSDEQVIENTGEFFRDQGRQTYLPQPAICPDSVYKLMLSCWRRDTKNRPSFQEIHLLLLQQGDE
Chain of Fibroblast growth factor receptor 2 (Homo sapiens), P21802 [N549H] (P21802 whole entry N549H): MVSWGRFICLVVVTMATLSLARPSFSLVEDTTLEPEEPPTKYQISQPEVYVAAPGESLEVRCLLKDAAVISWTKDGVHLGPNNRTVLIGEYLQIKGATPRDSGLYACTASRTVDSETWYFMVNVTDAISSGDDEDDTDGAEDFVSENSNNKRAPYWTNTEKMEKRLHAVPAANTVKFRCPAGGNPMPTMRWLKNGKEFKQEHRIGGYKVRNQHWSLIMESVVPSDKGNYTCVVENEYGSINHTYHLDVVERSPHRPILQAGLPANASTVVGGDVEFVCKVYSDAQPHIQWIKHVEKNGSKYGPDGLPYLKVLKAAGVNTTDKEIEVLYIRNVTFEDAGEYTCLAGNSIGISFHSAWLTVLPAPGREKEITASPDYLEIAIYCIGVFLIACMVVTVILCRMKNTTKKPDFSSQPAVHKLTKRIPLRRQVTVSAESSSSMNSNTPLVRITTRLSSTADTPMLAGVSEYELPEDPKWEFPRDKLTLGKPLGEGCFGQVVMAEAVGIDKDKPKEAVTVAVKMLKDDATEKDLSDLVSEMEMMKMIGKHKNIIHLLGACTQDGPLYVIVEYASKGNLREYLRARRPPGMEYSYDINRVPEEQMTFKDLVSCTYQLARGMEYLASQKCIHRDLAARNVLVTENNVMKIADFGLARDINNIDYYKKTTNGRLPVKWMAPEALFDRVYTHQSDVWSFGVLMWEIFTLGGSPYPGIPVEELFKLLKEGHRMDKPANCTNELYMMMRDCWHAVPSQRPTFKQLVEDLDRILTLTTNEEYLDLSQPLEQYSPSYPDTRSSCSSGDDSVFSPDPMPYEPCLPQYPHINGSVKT
Chain of Testis-specific serine/threonine-protein kinase 2 (Homo sapiens) (Q96PF2 whole entry): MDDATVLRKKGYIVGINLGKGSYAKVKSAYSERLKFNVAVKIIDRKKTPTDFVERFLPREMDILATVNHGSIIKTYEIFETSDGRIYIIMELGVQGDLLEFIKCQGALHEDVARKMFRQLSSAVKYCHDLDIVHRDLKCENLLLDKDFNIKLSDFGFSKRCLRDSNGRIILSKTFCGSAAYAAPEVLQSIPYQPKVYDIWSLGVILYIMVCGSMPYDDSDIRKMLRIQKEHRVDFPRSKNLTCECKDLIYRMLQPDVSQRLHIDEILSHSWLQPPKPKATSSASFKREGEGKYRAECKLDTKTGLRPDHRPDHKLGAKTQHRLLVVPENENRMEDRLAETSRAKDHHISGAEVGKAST

SMILES: COC(=O)Nc1noc2cc(-c3c(-c4ccccn4)n[nH]c3C)ccc12
- inhibition [1]: 40.7%
- inhibition [2]: -4.3%
- bioavailability [3]: 100%

SMILES: Cc1[nH]nc(C2CC2)c1-c1ccc2c(NC(=O)C3CC3)noc2c1
- inhibition [4]: 0%
- inhibition [5]: 1.3%
- inhibition [6]: -1.7%
- inhibition [7]: 7.7%
- inhibition [8]: 4%
- inhibition [9]: 7.3%
- inhibition [10]: 1%

SMILES: Cc1n[nH]c(C)c1-c1ccc2c(NC(=O)c3ccc(N4CCN(C)CC4)cc3)n[nH]c2c1
- inhibition [11]: 18.7%
- inhibition [12]: 1.3%
- inhibition [13]: 66%
- inhibition [14]: 5%
- inhibition [15]: 8%
- inhibition [16]: 62.3%
- inhibition [17]: -1%
- inhibition [18]: -3%
- inhibition [19]: 40%
- inhibition [20]: 35%
- inhibition [21]: 11%
- inhibition [22]: -1.7%
